# Patent US8673908B2, “Kynurenine production inhibitor” (Kyowa Hakko Kirin Co., Ltd., priority 2008, dated 2014)
# Tested on: kynurenine production in IFN-γ-treated KATO-III cells
# Test: Inhibitory activity on kynurenine production (Test Example 1)
# Type: cell-based
# Conditions: Homo sapiens, IFN-γ treatment, culture for 96 hours, read-out: IC50 value, inhibition of kynurenine production
# Protocol: This assay was performed according to a method modified from the method described in the Journal of Biological Chemistry (J. Biol. Chem.), vol. 263, pp. 2041-2048 (1988). Culture of KATO-III derived from human gastric cancer cells was performed by use of RPMI 1640 (GIBCO, 11875) supplemented with 10 vol % FBS (GIBCO, 10091-148, lot. 665285). 1 μL of a DMSO solution of the test substance was diluted with 199 μL of the culture medium, and the diluted solution was added to wells of a 384 well plate (10 μL/well). Then, IFN-γ (Sigma, 1-3265) was added to the culture medium so that the concentration of IFN-γ was 31.25 ng/mL, and the KATO-III cells were suspended at 50,000 cells/ml, in the culture medium. 40 μL of the suspension was added to each well (2,000 cells/well), and culture of the KATO-III cells was performed at 37° C. under a 5% CO2 atmosphere for 96 hours. The final concentration of DMSO was limited to 0.1 vol % or less so that DMSO itself might not affect the kynurenine concentration measured by this assay. After the culture, 10 μL of a 30 w/v % aqueous trichloroacetic acid solution was added to each well, and incubation was performed at 65° C. for 30 minutes. The plate was centrifuged at 2,500×g for 5 minutes, and then 15 μL of the supernatant in each well was transferred into another 384 well plate. To each of the transferred supernatants, 15 μL of a 2 w/v % solution of p-dimethylaminobenzaldehyde in acetic acid was added, incubation was performed at 65° C. for 20 minutes, and then the absorbance at 480 nm was measured.
# [formula] Sample: the absorbance value of the well to which a DMSO solution containing the test substance was added and in which cells were treated with IFN-γ. Blank: the absorbance value of the well to which only DMSO, not the test substance was added and in which cells were treated with IFN-γ. Control: the absorbance value of the well to which only DMSO, not the test substance was added and in which cells were not treated with IFN-γ.
# In this assay, expression of IDO in KATO-III cells is induced by IFN-γ treatment and then kynurenine in the culture medium is quantified. It is known that the kynurenine concentration in a culture medium increases in proportion to the enzymatic activity of intracellular IDO (for example, the Journal of Biological Chemistry (J. Biol. Chem.), vol. 263, pp. 2041-2048 (1988)). […] It is known that kynurenine production is inhibited by IDO inhibitors (for example, the Journal of Clinical Investigation (J. Clin. Invest.), vol. 117, No. 5, pp. 1147-1154 […]), and thus it is expected that Compound (I) also has an inhibitory effect on IDO.
row,SMILES,IC50
1,"Cc1nc(C)c(S(=O)(=O)Nc2nc3ccccc3nc2OC(c2cccnc2)C(F)(F)F)s1 (stereo not drawn) [Compound 163, 2,4-dimethyl-N-{3-[2,2,2-trifluoro-1-(pyridin-3-yl)ethoxy]-quinoxalin-2-yl}thiazole-5-sulfonamide]",< 1000 nM
2,"O=S(=O)(Nc1nc2ccccc2nc1OC(CCc1cccnc1)C(F)(F)F)c1ccccc1Cl (stereo not drawn) [Compound 172, 2-chloro-N-{3-[1,1,1-trifluoro-4-(pyridin-3-yl)butan-2-yloxy]quinoxalin-2-yl}benzenesulfonamide]",< 1000 nM
3,"O=S(=O)(Nc1nc2ccccc2nc1OCc1ccc2ccccc2c1)c1ccc(Cl)cc1Cl [Compound 29, 2,4-dichloro-N-{3-[(2-naphthyl)methoxy]quinoxalin-2-yl}-benzenesulfonamide]",< 1000 nM
4,"CC(C)C(Oc1nc2ccccc2nc1NS(=O)(=O)c1cccc(Cl)c1Cl)c1cccnc1 (stereo not drawn) [Compound 34, 2,3-dichloro-N-{3-[2-methyl-1-(pyridin-3-yl)propoxy]-quinoxalin-2-yl}benzenesulfonamide]",< 1000 nM
5,"CCCS(=O)(=O)Nc1nc2ccccc2nc1OC(c1cccc(C#N)c1)C(F)(F)F (stereo not drawn) [Compound 290, N-{3-[1-(3-cyanophenyl)-2,2,2-trifluoroethoxy]quinoxalin-2-yl}propane-1-sulfonamide]",< 1000 nM
6,"Cc1noc(C)c1S(=O)(=O)Nc1nc2ccccc2nc1OC(C1CCSCC1)C(F)(F)F (stereo not drawn) [Compound 131, 3,5-dimethyl-N-{3-[2,2,2-trifluoro-1-(tetrahydro-2H-thiopyran-4-yl)ethoxy]quinoxalin-2-yl}isoxazole-4-sulfonamide]",< 1000 nM
7,"CN(C)Cc1ccc(C(Oc2nc3ccccc3nc2NS(=O)(=O)c2ccccc2Cl)C(F)(F)F)cc1 (stereo not drawn) [Compound 62, 2-chloro-N-{3-[2,2,2-trifluoro-1-(4-dimethylaminomethyl-phenyl)ethoxy]quinoxalin-2-yl}benzenesulfonamide]",< 1000 nM
8,"O=S(=O)(Nc1nc2ccccc2nc1OC(C1CCCCC1)C(F)(F)F)c1ccccc1Cl (stereo not drawn) [Compound 118, 2-chloro-N-[3-(1-cyclohexyl-2,2,2-trifluoroethoxy)-quinoxalin-2-yl]benzenesulfonamide]",< 1000 nM
9,"Cc1noc(C)c1S(=O)(=O)Nc1nc2ccccc2nc1OC(c1cccnc1)C1(F)CCOCC1 (stereo not drawn) [Compound 88, 3,5-dimethyl-N-{3-[4-fluorotetrahydropyran-4-yl(pyridin-3-yl)methoxy]quinoxalin-2-yl}isoxazole-4-sulfonamide]",< 1000 nM
10,"O=S(=O)(Nc1nc2ccccc2nc1OC(c1nccs1)C(F)(F)F)c1cccc(Cl)c1Cl (stereo not drawn) [Compound 99, 2,3-dichloro-N-{3-[2,2,2-trifluoro-1-(thiazol-2-yl)ethoxy]-quinoxalin-2-yl}benzenesulfonamide]",< 1000 nM
11,"O=S(=O)(Nc1nc2ccccc2nc1OC(c1ccc(Cl)nc1)C(F)(F)F)c1ccccc1Cl (stereo not drawn) [Compound 85, 2-chloro-N-{3-[2,2,2-trifluoro-1-(6-chloropyridin-3-yl)-ethoxy]quinoxalin-2-yl}benzenesulfonamide]",< 1000 nM
12,"CCS(=O)(=O)Nc1nc2ccccc2nc1OC(c1cccnc1)C(F)(F)F (stereo not drawn) [Compound 190, N-{3-[2,2,2-trifluoro-1-(pyridin-3-yl)ethoxy]quinoxalin-2-yl}ethanesulfonamide]",< 1000 nM
13,"CCCS(=O)(=O)Nc1nc2ccccc2nc1OC(C(F)(F)F)C1(C#N)CCOCC1 (stereo not drawn) [Compound 351, N-{3-[2,2,2-trifluoro-1-(4-cyanotetrahydro-2H-pyran-4-yl)-ethoxy]quinoxalin-2-yl}propane-1-sulfonamide]",< 1000 nM
14,"Cn1c(C(Oc2nc3ccccc3nc2NS(=O)(=O)c2ccccc2Cl)C(F)(F)F)cc2ccccc21 (stereo not drawn) [Compound 127, 2-chloro-N-{3-[2,2,2-trifluoro-1-(1-methyl-1H-indol-2-yl)-ethoxy]quinoxalin-2-yl}benzenesulfonamide]",< 1000 nM
15,"CCCNS(=O)(=O)Nc1nc2ccccc2nc1OC(c1cncs1)C(F)(F)F (stereo not drawn) [Compound 281, N-{3-[2,2,2-trifluoro-1-(thiazol-5-yl)ethoxy]quinoxalin-2-yl}-N′-propyl-sulfuric diamide]",< 1000 nM
16,"O=S(=O)(Nc1nc2ccccc2nc1OC(c1ccc(Cl)nc1)C(F)(F)F)NC1CC1 (stereo not drawn) [Compound 288, N-{3-[1-(6-chloropyridin-3-yl)-2,2,2-trifluoroethoxy]-quinoxalin-2-yl}-N′-cyclopropyl-sulfuric diamide]",< 1000 nM
17,"Cc1ccc(C(Oc2nc3ccccc3nc2NS(=O)(=O)NC2CC2)C(F)(F)F)c[n+]1[O-] (stereo not drawn) [Compound 289, 5-{1-[3-(N-cyclopropylsulfamoylamino)quinoxalin-2-yloxy]-2,2,2-trifluoroethyl}-2-methylpyridine 1-oxide]",1000 to 10000 nM
18,"Cc1ccc2nc(NS(=O)(=O)c3ccccc3Cl)c(OC(c3cccnc3)C(F)(F)F)nc2c1 (stereo not drawn) [Compound 262, 2-chloro-N-{6-methyl-3-[2,2,2-trifluoro-1-(pyridin-3-yl)-ethoxy]quinoxalin-2-yl}benzenesulfonamide]",< 1000 nM
19,"O=S(=O)(Nc1nc2ccccc2nc1OC(c1cncn1CC1CC1)C(F)(F)F)c1ccccc1Cl (stereo not drawn) [Compound 111, 2-chloro-N-{3-[2,2,2-trifluoro-1-(1-cyclopropylmethyl-1H-imidazol-5-yl)ethoxy]quinoxalin-2-yl}benzenesulfonamide]",< 1000 nM

# More lines, now with the values ahead:
row,IC50,SMILES
1,< 1000 nM,"CCCNS(=O)(=O)Nc1nc2ccccc2nc1OC(c1cncn1C)C(F)(F)F (stereo not drawn) [Compound 282, N-{3-[2,2,2-trifluoro-1-(1-methyl-1H-imidazol-5-yl)ethoxy]-quinoxalin-2-yl}-N′-propyl-sulfuric diamide]"
2,< 1000 nM,"O=S(=O)(Nc1nc2ccccc2nc1OC(c1cccnc1)C(F)(F)F)c1ccc(Cl)s1 (stereo not drawn) [Compound 146, 5-chloro-N-{3-[2,2,2-trifluoro-1-(pyridin-3-yl)ethoxy]-quinoxalin-2-yl}thiophene-2-sulfonamide]"
3,< 1000 nM,"Cc1nn(C)c(Cl)c1S(=O)(=O)Nc1nc2ccccc2nc1OC(c1ccc(C#N)cc1)C(F)(F)F (stereo not drawn) [Compound 200, 5-chloro-N-{3-[1-(4-cyanophenyl)-2,2,2-trifluoroethoxy]-quinoxalin-2-yl}-1,3-dimethyl-1H-pyrazole-4-sulfonamide]"
4,< 1000 nM,"Cc1noc(C)c1S(=O)(=O)Nc1nc2ccccc2nc1OC(c1ccccc1)C(F)(F)F (stereo not drawn) [Compound 185, 3,5-dimethyl-N-[3-(2,2,2-trifluoro-1-phenylethoxy)-quinoxalin-2-yl]isoxazole-4-sulfonamide]"
5,< 1000 nM,"CCC(=O)C(CC)Oc1nc2ccccc2nc1NS(=O)(=O)c1ccccc1Cl (stereo not drawn) [Compound 237, 2-chloro-N-[3-(4-oxohexan-3-yloxy)quinoxalin-2-yl]benzenesulfonamide]"
6,< 1000 nM,"CCCS(=O)(=O)Nc1nc2ccccc2nc1OC(C1CCN(C(C)=O)CC1)C(F)(F)F (stereo not drawn) [Compound 330, N-{3-[2,2,2-trifluoro-1-(1-acetylpiperidin-4-yl)ethoxy]-quinoxalin-2-yl}propane-1-sulfonamide]"
7,< 1000 nM,"CC(CN1CCOCC1)Oc1nc2ccccc2nc1NS(=O)(=O)c1ccccc1Cl (stereo not drawn) [Compound 230, 2-chloro-N-[3-(1-morpholinopropan-2-yloxy)quinoxalin-2-yl]-benzenesulfonamide]"
8,< 1000 nM,"Cn1c(C(Oc2nc3ccccc3nc2NS(=O)(=O)c2cccc(Cl)c2Cl)C(F)(F)F)cc2ccccc21 (stereo not drawn) [Compound 103, 2,3-dichloro-N-{3-[2,2,2-trifluoro-1-(1-methyl-1H-indol-2-yl)ethoxy]quinoxalin-2-yl}benzenesulfonamide]"
9,< 1000 nM,"O=S(=O)(Nc1nc2ccccc2nc1OC(c1cccnc1)C(F)(F)F)c1cc(F)cc(F)c1 (stereo not drawn) [Compound 153, 3,5-difluoro-N-{3-[2,2,2-trifluoro-1-(pyridin-3-yl)ethoxy]-quinoxalin-2-yl}benzenesulfonamide]"
10,< 1000 nM,"Cn1cncc1C(Oc1nc2ccccc2nc1NS(=O)(=O)c1ccccc1Cl)C(F)(F)F (stereo not drawn) [Compound 175, 2-chloro-N-{3-[2,2,2-trifluoro-1-(1-methyl-1H-imidazol-5-yl)ethoxy]quinoxalin-2-yl}benzenesulfonamide]"
11,< 1000 nM,"O=S(=O)(Nc1nc2ccccc2nc1OC(c1ccccn1)C(F)(F)F)c1ccccc1Cl (stereo not drawn) [Compound 48, 2-chloro-N-{3-[2,2,2-trifluoro-1-(pyridin-2-yl)ethoxy]-quinoxalin-2-yl}benzenesulfonamide]"
